Series [1] deals with CVB3. The experiment in a line: CPE antiviral assay, CVB3 in Vero C1008 cells. The series is classed as cell-based.
Series [2] deals with EV-A71 Tainan/4643/98. The experiment in a line: CPE antiviral assay, EV-A71 Tainan/4643/98 in RD cells. It is filed as cell-based. The following applies: read-out: EC50 against EV-A71 Tainan.
In series [3] the test system is Vero C1008 cells. The experiment in a line: Cytotoxicity in Vero C1008 cells, neutral red method. It is filed as cell-based. The following applies: read-out: CC50 in Vero C1008 cells.
Series [4] concerns the target CVB3 2C protein (Coxsackievirus B3, UniProt P03313). The experiment in a line: Differential scanning fluorimetry. It is filed as binding. The following applies: 1 mM compound, 4.5 μM 2C, DSF.
Series [5] concerns RD cells. The experiment in a line: Cytotoxicity in RD cells, neutral red method. Conditions: read-out: CC50 in RD cells, mean ± SD of three repeats.
Setting [6] is: Enterovirus B, CVB3, Vero C1008, read-out: EC50 against CVB3.
Setting [7] is: read-out: EC50 against CVB3, Vero C1008 cells, CPE assay.

Counter-ions that a name gives are not always drawn. Like-named read-outs stand apart in the source and are kept apart here.

CVB3 2C protein, sequence (P03313 1101-1429): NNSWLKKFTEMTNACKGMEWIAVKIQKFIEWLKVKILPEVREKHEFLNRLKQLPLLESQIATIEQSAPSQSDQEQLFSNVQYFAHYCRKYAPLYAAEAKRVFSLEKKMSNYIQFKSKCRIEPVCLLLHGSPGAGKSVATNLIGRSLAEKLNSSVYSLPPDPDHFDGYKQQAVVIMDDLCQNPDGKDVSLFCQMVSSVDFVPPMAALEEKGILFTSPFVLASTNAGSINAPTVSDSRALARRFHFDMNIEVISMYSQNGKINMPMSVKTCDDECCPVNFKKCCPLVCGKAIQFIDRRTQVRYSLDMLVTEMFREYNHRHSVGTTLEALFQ

A word on the EC50: it is the concentration needed to bring the measured effect to its halfway point. Regarding `CCCCOc1cc(C(=O)NCCN(CC)CC)c2ccccc2n1` [dibucaine], the EC50 in series [1] (setting [6]) was 1.3 µM; in series [2] (Enterovirus A, EVA71, RD), > 10 µM.

By CC50 is commonly meant the concentration at which the toxic effect on the cells reaches its halfway point. With `CNCCC(Oc1ccc(C(F)(F)F)cc1)c1ccccc1` (stereo not drawn) [fluoxetine], the CC50 in series [3] was found to be 11 µM.

Regarding `COc1ccc(CC(C)NCC(O)c2ccc(O)c(NC=O)c2)cc1` (stereo not drawn) [formoterol], the CC50 in series [3] is > 300 µM. The EC50 is 9.9 µM in series [1] (setting [6]) and > 100 µM in series [2] (Enterovirus A, EVA71, RD).

Regarding `N=C(N)N` [guanidine], the CC50 in series [3] was > 3000 µM; in series [5], > 1000 µM. Also, in series [4], the “Tm shift of CVB3 2C protein” value is 1.77 °C. Besides, the EC50 amounted to 224 µM in series [1] (setting [7]) and 902 µM in series [2] (RD cells, CPE assay).

As to `Cc1ccc2c(c1)c1c3n2CCNC3CCC1` (stereo not drawn) [pirlindole mesylate], the CC50 is 40.5 µM in series [3] and 19 µM in series [5]. The EC50 in series [1] (setting [7]) is 3.6 µM; in series [2] (RD cells, CPE assay), > 20 µM.

The record behind these values is article PMC7390679 (Bioorganic chemistry, 2020).
